Patent US9346795B2, “Substituted sulfonamides useful as antiapoptotic Bcl inhibitors” (Bristol-Myers Squibb Company, priority 2011, dated 2016)

How the values were obtained:
Bcl-2 = Bcl-2 (Homo sapiens (Human), UniProt P10415); assay: Bcl-2/Bim Fluorescence Polarization Assay (FPA); format: binding
Bcl-xL = Bcl-xL (Homo sapiens (Human), UniProt Q07817); assay: Bcl-xL/Bim Fluorescence Resonance Energy Transfer Assay (FRET); format: binding
Procedure, shortened: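 Biotin-Bcl-xL was incubated with Bim and compound at eleven concentrations for 60 min at room temperature. Streptavidin-terbium detection was then added for 30 min in the dark, and FRET was read. IC50 values were obtained by non-linear regression.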

Chain of Bcl-2 (P10415 whole entry): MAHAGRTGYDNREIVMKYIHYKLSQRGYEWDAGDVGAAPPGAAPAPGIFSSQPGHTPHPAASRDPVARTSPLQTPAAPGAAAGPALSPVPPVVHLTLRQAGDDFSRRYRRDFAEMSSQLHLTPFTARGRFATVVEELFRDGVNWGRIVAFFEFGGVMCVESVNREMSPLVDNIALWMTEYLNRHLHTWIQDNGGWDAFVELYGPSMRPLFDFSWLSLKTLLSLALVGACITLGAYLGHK
Chain of Bcl-xL (Q07817 whole entry): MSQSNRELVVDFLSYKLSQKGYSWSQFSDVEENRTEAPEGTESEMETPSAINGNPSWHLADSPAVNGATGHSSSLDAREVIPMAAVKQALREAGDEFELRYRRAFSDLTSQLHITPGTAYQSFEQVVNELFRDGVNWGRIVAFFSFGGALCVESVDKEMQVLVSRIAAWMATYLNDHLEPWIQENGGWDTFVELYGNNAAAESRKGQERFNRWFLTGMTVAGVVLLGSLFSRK

SMILES	IC50 (Bcl-2) [nM]	IC50 (Bcl-xL) [nM]
CCCCN(CCCC)C(=O)c1nn(-c2ccc(C(=O)NS(=O)(=O)c3cc(Br)c4c(ccn4CC)c3)cc2C(=O)N2Cc3ccccc3C[C@H]2CO)c(C)c1Cl [Example 208, 1-(4-(7-bromo-1-ethyl-1H-indol-5-ylsulfonylcarbamoyl)-2-((S)-3-(hydroxymethyl)-1,2,3,4-tetrahydroisoquinoline-2-carbonyl)phenyl)-N,N-dibutyl-4-chloro-5-methyl-1H-pyrazole-3-carboxamide]	3.59	7.88
CCCCN(Cc1ccc(-c2ccc(CC(=O)O)cc2)cc1)C(=O)c1nn(-c2ccc(C(=O)NS(=O)(=O)c3ccc4c(c3)CCN4Cc3ccc(Cl)c(Cl)c3)cc2C(=O)N2CCc3ccccc3C2)c(C)c1Cl [Example 213, 2-(4′-((N-butyl-4-chloro-1-(4-(1-(3,4-dichlorobenzyl)indolin-5-ylsulfonylcarbamoyl)-2-(1,2,3,4-tetrahydroisoquinoline-2-carbonyl)phenyl)-5-methyl-1H-pyrazole-3-carboxamido)methyl)biphenyl-4-yl)acetic acid]	10	80
CCCCN(C(=O)c1nn(-c2ccc(C(=O)NS(=O)(=O)c3ccc4c(Cl)ccc(Br)c4c3)cc2C(=O)N2CCc3ccccc3C2)c(C)c1Cl)c1cccc(-c2ccc(Cl)cc2)c1 [Example 217, 1-(4-(8-bromo-5-chloronaphthalen-2-ylsulfonylcarbamoyl)-2-(1,2,3,4-tetrahydroisoquinoline-2-carbonyl)phenyl)-N-butyl-4-chloro-N-(4′-chlorobiphenyl-3-yl)-5-methyl-1H-pyrazole-3-carboxamide]	10	70
CCCCN(C(=O)c1nn(-c2ccc(C(=O)NS(=O)(=O)c3ccc4c(Cl)ccc(Cl)c4c3)cc2C(=O)N2CCc3ccccc3C2)c(C)c1Cl)c1cccc(-c2ccc(Cl)cc2)c1 [Example 221, N-butyl-4-chloro-N-(4′-chlorobiphenyl-3-yl)-1-(4-(5,8-dichloronaphthalen-2-ylsulfonylcarbamoyl)-2-(1,2,3,4-tetrahydroisoquinoline-2-carbonyl)phenyl)-5-methyl-1H-pyrazole-3-carboxamide]	40	40
CCCCN(C(=O)c1nn(-c2ccc(C(=O)NS(=O)(=O)c3ccc4c(Cl)ccc(Cl)c4c3)cc2C(=O)N2CCc3ccccc3C2)c(C)c1Cl)c1cccc(-c2cccc(Cl)c2)c1 [Example 222, N-butyl-4-chloro-N-(3′-chlorobiphenyl-3-yl)-1-(4-(5,8-dichloronaphthalen-2-ylsulfonylcarbamoyl)-2-(1,2,3,4-tetrahydroisoquinoline-2-carbonyl)phenyl)-5-methyl-1H-pyrazole-3-carboxamide]	70	40
CCCCc1c(-c2ccc(C(=O)NS(=O)(=O)c3ccc4ccccc4c3)cc2C(=O)N2CCc3ccccc3C2)c(C(=O)OCC)nn1-c1ccc(Oc2ccccc2)cc1 [Example 228, Ethyl 5-butyl-4-(4-(naphthalen-2-ylsulfonylcarbamoyl)-2-(1,2,3,4-tetrahydroisoquinoline-2-carbonyl)phenyl)-1-(4-phenoxyphenyl)-1H-pyrazole-3-carboxylate]	100	60
CCCCc1c(-c2ccc(C(=O)NS(=O)(=O)c3ccc4ccccc4c3)cc2C(=O)N2CCc3ccccc3C2)c(C(=O)OCC)nn1-c1ccc(Oc2cccc(Cl)c2)cc1 [Example 230, Ethyl 5-butyl-1-(4-(3-chlorophenoxy)phenyl)-4-(4-(naphthalen-2-ylsulfonylcarbamoyl)-2(1,2,3,4-tetrahydroisoquinoline-2-carbonyl)phenyl)-1H-pyrazole-3-carboxylate]	20	60
CCCCc1c(-c2ccc(C(=O)NS(=O)(=O)CC[Si](C)(C)C)cc2C(=O)N2CCc3ccccc3C2)c(C(=O)OCC)nn1-c1ccccc1 [Example 239, Ethyl 5-butyl-1-phenyl-4-(2-(1,2,3,4-tetrahydroisoquinoline-2-carbonyl)-4-(2-(trimethylsilyl)ethylsulfonylcarbamoyl)phenyl)-1H-pyrazole-3-carboxylate]	580	30
CCCCc1c(-c2ccc(C(=O)NS(=O)(=O)c3ccc4ccccc4c3)cc2C(=O)N2CCc3ccccc3C2)c(CO)nn1-c1ccc(Oc2ccccc2)cc1 [Example 241, 4-(5-butyl-3-(hydroxymethyl)-1-(4-phenoxyphenyl)-1H-pyrazol-4-yl)-N-(naphthalen-2-ylsulfonyl)-3-(1,2,3,4-tetrahydroisoquinoline-2-carbonyl)benzamide]	130	30

Continued, values first:

IC50 (Bcl-2) [nM]	IC50 (Bcl-xL) [nM]	SMILES
20	40	CCCCc1c(-c2ccc(C(=O)NS(=O)(=O)c3ccc4ccccc4c3)cc2C(=O)N2CCc3ccccc3C2)c(CO)nn1-c1ccc(Oc2ccc(Cl)cc2)cc1 [Example 242, 4-(5-butyl-1-(4-(4-chlorophenoxy)phenyl)-3-(hydroxymethyl)-1H-pyrazol-4-yl)-N-(naphthalen-2-ylsulfonyl)-3-(1,2,3,4-tetrahydroisoquinoline-2-carbonyl)benzamide]
7.83	20	CCCCc1c(-c2ccc(C(=O)NS(=O)(=O)c3ccc4ccccc4c3)cc2C(=O)N2CCc3ccccc3C2)c(CO)nn1-c1ccc(Oc2cccc(Cl)c2)cc1 [Example 243, 4-(5-butyl-1-(4-(3-chlorophenoxy)phenyl)-3-(hydroxymethyl)-1H-pyrazol-4-yl)-N-(naphthalen-2-ylsulfonyl)-3-(1,2,3,4-tetrahydroisoquinoline-2-carbonyl)benzamide]
20	6.14	CCCCc1c(-c2ccc(C(=O)NS(=O)(=O)c3ccc4ccccc4c3)cc2C(=O)N2CCc3ccccc3C2)c(CO)nn1-c1ccc(CCO)cc1 [Example 245, 4-(5-butyl-1-(4-(2-hydroxyethyl)phenyl)-3-(hydroxymethyl)-1H-pyrazol-4-yl)-N-(naphthalen-2-ylsulfonyl)-3-(1,2,3,4-tetrahydroisoquinoline-2-carbonyl)benzamide]
20	50	CCCCc1c(-c2ccc(C(=O)NS(=O)(=O)c3ccc4c(Cl)ccc(Br)c4c3)cc2C(=O)N2CCc3ccccc3C2)c(C(=O)OCC)nn1-c1ccc(Oc2cccc(Cl)c2)cc1 [Example 251, ethyl 4-(4-(8-bromo-5-chloronaphthalen-2-ylsulfonylcarbamoyl)-2-(1,2,3,4-tetrahydroisoquinoline-2-carbonyl)phenyl)-5-butyl-1-(4-(3-chlorophenoxy)phenyl)-1H-pyrazole-3-carboxylate]
6.37	10	CCCCc1c(-c2ccc(C(=O)NS(=O)(=O)c3ccc4cccc(Cl)c4c3)cc2C(=O)N2CCc3ccccc3C2)c(CO)nn1-c1ccc(Oc2cccc(Cl)c2)cc1 [Example 252, 4-(5-butyl-1-(4-(3-chlorophenoxy)phenyl)-3-(hydroxymethyl)-1H-pyrazol-4-yl)-N-(8-chloronaphthalen-2-ylsulfonyl)-3-(1,2,3,4-tetrahydroisoquinoline-2-carbonyl)benzamide]
10	8.01	CCCCc1c(-c2ccc(C(=O)NS(=O)(=O)c3ccc4ccccc4c3)cc2C(=O)N2Cc3ccccc3C[C@H]2CO)c(CO)nn1-c1ccccc1 [Example 260, 4-(5-Butyl-3-(hydroxymethyl)-1-phenyl-1H-pyrazol-4-yl)-3-((S)-3-(hydroxymethyl)-1,2,3,4-tetrahydroisoquinoline-2-carbonyl)-N-(naphthalen-2-ylsulfonyl)benzamide]
